Measurements from ChEMBL document CHEMBL4190346, “Structure-based design, synthesis, and biological evaluation of withaferin A-analogues as potent apoptotic inducers” (Eur J Med Chem, 2017).
pIC50: −log10 of the molar value. Numbered stars: 1 amine (or outer) side, 2 acyl side, 3 side chain; on linkers, the order of the positions; unused ones are H or OH. Bridge positions count the residues as written; N and C are the ends. Square brackets hold non-standard residues; d marks the D form. Peptide text beside a SMILES is read from it. I, II: the chains in the order shown. Actinocin(1to9) = Cc1c2oc3c(C)ccc(C(=O)[*:2])c3nc-2c(C(=O)[*:1])c(N)c1=O; NMeV = CN[C@H](C(=O)O)C(C)C; Sar = CNCC(=O)O

Assays:
HeLa [1] = assay: Cytotoxicity against human HeLa cells assessed as reduction in cell viability using compound addition to cell culture cells in log phase of growth and incubated for 48 hrs by MTT assay; type: functional, cell-based; details: for pIC50: Homo sapiens, HeLa, 48 h, read-out: IC50
MCF7 [2] = assay: Cytotoxicity against human MCF7 cells assessed as reduction in cell viability using compound addition to cell culture cells in lag phase of growth and incubated for 48 hrs by MTT assay; type: functional, cell-based; details: for pIC50: Homo sapiens, MCF7, 48 h, read-out: IC50
A549 [3] = assay: Cytotoxicity against human A549 cells assessed as reduction in cell viability using compound addition to cell culture cells in lag phase of growth and incubated for 48 hrs by MTT assay; type: functional, cell-based; details: for pIC50: Homo sapiens, A549, 48 h, read-out: IC50
A549 [4] = assay: Cytotoxicity against human A549 cells assessed as reduction in cell viability using compound addition to cell culture cells in log phase of growth and incubated for 48 hrs by MTT assay; type: functional, cell-based; details: for pIC50: Homo sapiens, A549, 48 h, read-out: IC50
MCF7 [5] = assay: Cytotoxicity against human MCF7 cells assessed as reduction in cell viability using compound addition to cell culture cells in log phase of growth and incubated for 48 hrs by MTT assay; type: functional, cell-based; details: for pIC50: Homo sapiens, MCF7, 48 h, read-out: IC50
Vero [6] = assay: Cytotoxicity against African green monkey Vero cells assessed as reduction in cell viability using compound addition to cell culture cells in log phase of growth and incubated for 48 hrs by MTT assay; type: cell-based, Chlorocebus sabaeus; details: for pIC50: Chlorocebus sabaeus, Vero, 48 h, read-out: IC50
HeLa [7] = assay: Cytotoxicity against human HeLa cells assessed as reduction in cell viability using compound addition to cell culture cells in lag phase of growth and incubated for 48 hrs by MTT assay; type: functional, cell-based; details: for pIC50: Homo sapiens, HeLa, 48 h, read-out: IC50
Vero [8] = assay: Cytotoxicity against African green monkey Vero cells assessed as reduction in cell viability using compound addition to cell culture cells in lag phase of growth and incubated for 48 hrs by MTT assay; type: cell-based, Chlorocebus sabaeus; details: for pIC50: Chlorocebus sabaeus, Vero, 48 h, read-out: IC50

Structure (SMILES)	pIC50 (HeLa [1])	pIC50 (MCF7 [2])	pIC50 (A549 [3])	pIC50 (A549 [4])	pIC50 (MCF7 [5])	pIC50 (Vero [6])	pIC50 (HeLa [7])	pIC50 (Vero [8])	IC50 (HeLa [1]; hela)	IC50 (MCF7 [2]; mcf7)	IC50 (A549 [3]; a549)	IC50 (A549 [4]; a549)	IC50 (MCF7 [5]; mcf7)	IC50 (Vero [6]; vero)	IC50 (HeLa [7]; hela)	IC50 (Vero [8]; vero)
CC1=C(C)C(=O)O[C@@H]([C@@H](C)[C@H]2CC[C@H]3[C@@H]4C[C@H]5O[C@]56[C@@H](O)CC[C@@H](O)[C@]6(C)[C@H]4CC[C@]23C)C1	< 4.40	< 4.40	< 4.40	< 4.40	< 4.40	< 4.40	< 4.40	< 4.40								
Cc1c2oc3c(C)ccc(C(=O)N[C@@H]4C(=O)N[C@H](C(C)C)C(=O)N5CCC[C@H]5C(=O)N(C)CC(=O)N(C)[C@@H](C(C)C)C(=O)O[C@@H]4C)c3nc-2c(C(=O)N[C@@H]2C(=O)N[C@H](C(C)C)C(=O)N3CCC[C@H]3C(=O)N(C)CC(=O)N(C)[C@@H](C(C)C)C(=O)O[C@@H]2C)c(N)c1=O [DACTINOMYCIN] (I: T[dV]P[Sar][NMeV] / II: T[dV]P[Sar][NMeV]; ester I:1-I:C, II:1-II:C; linker I:N-II:N via Actinocin(1to9))	8.49			8.10	7.32	7.96										
CC1=C(CO[Si](C)(C)C(C)(C)C)C(=O)O[C@@H]([C@@H](C)[C@H]2CC[C@H]3[C@@H]4C[C@H]5O[C@]56[C@@H](O)C=CC(=O)[C@]6(C)[C@H]4CC[C@]23C)C1	5.51			5.40	5.92	6.10										
CCCCCCCCCCCC(=O)OCC1=C(C)C[C@H]([C@@H](C)[C@H]2CC[C@H]3[C@@H]4C[C@H]5O[C@]56[C@@H](OC(=O)CCCCCCCCCCC)C=CC(=O)[C@]6(C)[C@H]4CC[C@]23C)OC1=O									Nd(Insoluble)	Nd(Insoluble)	Nd(Insoluble)	Nd(Insoluble)	Nd(Insoluble)	Nd(Insoluble)	Nd(Insoluble)	Nd(Insoluble)
CC1=C(CO)C(=O)O[C@@H]([C@@H](C)[C@H]2CC[C@H]3[C@@H]4C[C@H]5O[C@]56[C@@H](O)[C@@H](O)CC(=O)[C@]6(C)[C@H]4CC[C@]23C)C1 [VISCOSALACTONE B]	< 4.40	< 4.40	< 4.40	< 4.40	< 4.40	< 4.40	< 4.40	< 4.40								
CCCCCCCCCCCC(=O)OCC1=C(C)C[C@H]([C@@H](C)[C@H]2CC[C@H]3[C@@H]4C[C@H]5O[C@]56[C@@H](O)C=CC(=O)[C@]6(C)[C@H]4CC[C@]23C)OC1=O	5.33	5.62	4.99	4.91	5.46	5.33	5.43	5.72								
COCC1=C(C)C[C@H]([C@@H](C)[C@H]2CC[C@H]3[C@@H]4C[C@H]5O[C@]56[C@@H](O)C=CC(=O)[C@]6(C)[C@H]4CC[C@]23C)OC1=O	5.48	5.85	5.38	5.28	5.72	5.82	5.49	6.05								
CCCCCCCC(=O)OCC1=C(C)C[C@H]([C@@H](C)[C@H]2CC[C@H]3[C@@H]4C[C@H](Cl)[C@]5(O)[C@@H](O)C=CC(=O)[C@]5(C)[C@H]4CC[C@]23C)OC1=O	4.48	4.82	4.50	< 4.40	4.86	4.79	4.53	4.79								
CC1=C(CCl)C(=O)O[C@@H]([C@@H](C)[C@H]2CC[C@H]3[C@@H]4C[C@H]5O[C@]56[C@@H](O)C=CC(=O)[C@]6(C)[C@H]4CC[C@]23C)C1	5.55	5.96	5.70	5.44	6.00	6.22	5.60	6.30								
CC1=C(CCl)C(=O)O[C@@H]([C@@H](C)[C@H]2CC[C@H]3[C@@H]4C[C@H]5O[C@]56[C@H](Cl)C=CC(=O)[C@]6(C)[C@H]4CC[C@]23C)C1	5.10	5.39	5.02	4.74	5.32	5.51	5.51	5.72								
CCC(=O)OCC1=C(C)C[C@H]([C@@H](C)[C@H]2CC[C@H]3[C@@H]4C[C@H]5O[C@]56C(=O)C=CC(=O)[C@]6(C)[C@H]4CC[C@]23C)OC1=O	5.17	5.22	5.38	5.08	5.64	5.96	5.33	5.42								
CC(=O)OCC1=C(C)C[C@H]([C@@H](C)[C@H]2CC[C@H]3[C@@H]4C[C@H](Cl)[C@]5(O)[C@@H](O)C=CC(=O)[C@]5(C)[C@H]4CC[C@]23C)OC1=O	4.83	4.96	4.97	4.77	5.14	5.19	4.79	5.32								
CO[C@H]1CC(=O)[C@]2(C)[C@H]3CC[C@]4(C)[C@@H]([C@H](C)[C@H]5CC(C)=C(CO)C(=O)O5)CC[C@H]4[C@@H]3C[C@H]3O[C@]32[C@H]1O	< 4.40	< 4.40	< 4.40	< 4.40	< 4.40	< 4.40	< 4.40	< 4.40								
Sc1ncnc2nc[nH]c12 [MERCAPTOPURINE ANHYDROUS]						< 3.93										
COc1ccc(C(=O)OCC2=C(C)C[C@H]([C@@H](C)[C@H]3CC[C@H]4[C@@H]5C[C@H](Cl)[C@]6(O)[C@@H](O)C=CC(=O)[C@]6(C)[C@H]5CC[C@]34C)OC2=O)cc1	4.42	5.52	< 4.40	< 4.40	5.17	5.17	4.58	5.42								
CC1=C(CO[Si](C)(C)C(C)(C)C)C(=O)O[C@@H]([C@@H](C)[C@H]2CC[C@H]3[C@@H]4C[C@H](O)[C@]5(O)[C@@H](O)C=CC(=O)[C@]5(C)[C@H]4CC[C@]23C)C1	4.92	5.12	4.85	5.00	5.25	5.12	4.83	5.10								
CO[C@H]1C=CC(=O)[C@]2(C)[C@H]3CC[C@]4(C)[C@@H]([C@H](C)[C@H]5CC(C)=C(CO)C(=O)O5)CC[C@H]4[C@@H]3C[C@H]3O[C@]132	5.42	5.96	5.40	5.36	5.77	5.82	5.68	6.05								
CC(=O)OCC1=C(C)C[C@H]([C@@H](C)[C@H]2CC[C@H]3[C@@H]4C[C@H]5O[C@]56[C@@H](O)C=CC(=O)[C@]6(C)[C@H]4CC[C@]23C)OC1=O	4.99				5.34	5.23										
COC(=O)CCC(=O)OCC1=C(C)C[C@H]([C@@H](C)[C@H]2CC[C@H]3[C@@H]4C[C@H]5O[C@]56[C@@H](OC(=O)CCC(=O)OC)C=CC(=O)[C@]6(C)[C@H]4CC[C@]23C)OC1=O	5.54	5.85	5.68	5.47	5.82	6.22	5.74	6.15								
CC1=C(COC(=O)C(C)(C)C)C(=O)O[C@@H]([C@@H](C)[C@H]2CC[C@H]3[C@@H]4C[C@H]5O[C@]56C(=O)C=CC(=O)[C@]6(C)[C@H]4CC[C@]23C)C1	5.72	6.00	5.43	5.64	5.92	6.00	5.40	5.39								
COCC1=C(C)C[C@H]([C@@H](C)[C@H]2CC[C@H]3[C@@H]4C[C@H]5O[C@]56[C@@H](O)[C@@H](OC)CC(=O)[C@]6(C)[C@H]4CC[C@]23C)OC1=O	< 4.40	4.57	< 4.40	< 4.40	4.67	< 4.40	< 4.40	4.43								
CC1=C(CO)C(=O)O[C@@H]([C@@H](C)[C@H]2CC[C@H]3[C@@H]4C[C@H](Cl)[C@]5(O)[C@@H](O)C=CC(=O)[C@]5(C)[C@H]4CC[C@]23C)C1	4.76			4.79	5.10											
CC1=C(CO)C(=O)O[C@@H]([C@@H](C)[C@H]2CC[C@H]3[C@@H]4C[C@H]5O[C@]56[C@@H](O)CCC(=O)[C@]6(C)[C@H]4CC[C@]23C)C1	4.49			4.71	4.91	4.62										
